Results on 15 compounds are retold here after patent US20240376099A1, “COMPOUNDS AND COMPOSITIONS AS INHIBITORS OF ENDOSOMAL TOLL-LIKE RECEPTORS” (Novartis AG, priority 2016, published 2024).

What is called IC50 is the midpoint of a concentration-inhibition curve.

The experiment addresses T1, TLR9 (Homo sapiens, UniProt Q9NR96).
T1 construct: Fresh blood was collected from normal human donors; endogenous in cells; host or cells: human PBMCs from fresh donor blood
T1 sequence (Q9NR96 26-1032): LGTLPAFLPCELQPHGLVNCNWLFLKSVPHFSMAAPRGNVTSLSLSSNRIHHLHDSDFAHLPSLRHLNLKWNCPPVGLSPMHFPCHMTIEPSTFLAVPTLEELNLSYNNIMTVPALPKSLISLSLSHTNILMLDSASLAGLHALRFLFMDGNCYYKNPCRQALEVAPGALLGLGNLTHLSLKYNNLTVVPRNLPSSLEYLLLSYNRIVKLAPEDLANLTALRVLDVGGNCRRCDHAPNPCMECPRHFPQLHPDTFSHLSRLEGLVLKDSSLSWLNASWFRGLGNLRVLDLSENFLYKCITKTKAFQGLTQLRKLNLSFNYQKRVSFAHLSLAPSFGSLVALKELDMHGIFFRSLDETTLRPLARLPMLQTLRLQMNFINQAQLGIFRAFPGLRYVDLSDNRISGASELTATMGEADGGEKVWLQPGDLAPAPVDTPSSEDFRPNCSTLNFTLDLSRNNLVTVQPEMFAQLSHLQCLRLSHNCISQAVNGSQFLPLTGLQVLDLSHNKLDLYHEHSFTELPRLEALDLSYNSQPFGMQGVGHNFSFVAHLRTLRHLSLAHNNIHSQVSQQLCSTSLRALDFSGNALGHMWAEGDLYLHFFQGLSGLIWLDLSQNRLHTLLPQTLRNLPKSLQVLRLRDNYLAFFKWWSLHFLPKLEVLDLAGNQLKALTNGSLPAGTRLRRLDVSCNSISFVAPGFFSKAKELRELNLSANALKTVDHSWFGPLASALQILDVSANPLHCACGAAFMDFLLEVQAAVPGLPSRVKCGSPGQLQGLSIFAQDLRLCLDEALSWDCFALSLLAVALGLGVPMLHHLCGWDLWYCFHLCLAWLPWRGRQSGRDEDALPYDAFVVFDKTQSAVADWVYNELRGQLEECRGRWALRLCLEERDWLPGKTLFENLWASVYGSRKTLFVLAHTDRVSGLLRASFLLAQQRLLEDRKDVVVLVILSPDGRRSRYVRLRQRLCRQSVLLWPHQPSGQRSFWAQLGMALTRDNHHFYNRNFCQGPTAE
The experiment is described as follows: huPBMC TLR9 Antagonist IFNα Assay. The experiment is classed as cell-based. As to conditions: human PBMCs stimulated with ODN2216 0.3 μM, 14-16 hrs; IFNα2b AlphaLISA read-out. Here is the method: Compounds were generally serially diluted (1/3) in DMSO and plated on sterile 384 well tissue culture plates and stored until ready for use. Each ten-point dilution was typically plated in triplicate in parallel rows.
Fresh blood was collected from normal human donors underwritten informed consent in heparinized syringes on the morning of the assay. The blood was diluted in RPMI-1640 medium and the white blood cells were separated from red blood cells by centrifugation (800 g 15′ 0 acceleration, 0 brake) on a Ficoll cushion. Peripheral blood mononuclear cells (PBMCs) were separated from platelets by a series of low-speed centrifugations (1000RPM 10′) in PBS+5% HI—FBS and 1 mM EDTA. Purified PBMCs were re-suspended in assay medium (RPMI-1640 w Glutamax (Invitrogen) supplemented with 5% HI—FBS, 10 mM HEPES, 50 uM β-mercaptoethanol, and 100 mG/L penicillin/streptomycin cocktail). Viable PBMCs were counted on a hemacytometer and kept on ice until ready for plating.
A 4× concentration (4 ug/ml or 40 ug/ml for TLR8 or TLR7 assays, respectively) of the TLR7/8 agonist ssRNA40 (IDT) was complexed with 10% DOTAP (Roche) in assay medium for 30 min prior to addition to the PBMC suspension (5 million cells/ml). After addition, the final concentration of ssRNA40 in the TLR7/8 stimulated PBMC suspension was 1 μg/ml for TLR8 assay, and 10 μg/mL for the TLR7 assay. The final DOTAP concentration was 2.5%. Diluted PBMCs (5 million cells/ml) were treated with 4×TLR9 agonist ODN2216 (Invivogen). Final concentration of ODN2216 in TLR9 stimulated PBMC suspension was 0.3 μM.
Agonist stimulated PBMCs were plated on the compound treated 384 well plates at 150,000 cells/well. Un-stimulated PBMCs were plated as controls on each plate. Plating volume was 40 μL per well. DMSO concentration in each well was 0.25%.
A separate plate, without compounds, with titrations of ssRNA40 and ODN2216 was included in every assay to measure agonist response of each donor's PBMC prep. Assay plates were placed in a tissue culture incubator (37° C., 5% CO2) for 14-16 hrs. After this incubation, the plates were centrifuged and stored at −20° C. until they were assayed.
IL-6 TR-FRET Assay for TLR8 activity: • 1) Cisbio Human IL-6 kit, 20,000 tests (62TNFPEC), and GNF High-Base TC 384 well plates (cat #789163G) were used; • 2) the Anti-TIL-6 Cryptate conjugate and the Anti-IL-6 XL665 conjugate were diluted 1:20 in Reconstitution Buffer; • 3) a 1:1 mixture of 3 μl/well Anti-IL-6 Cryptate conjugate and 3 μl/well Anti-IL-6 XL665 conjugate was prepared; • 4) 6 μl/well HTRF dilution mastermix was added to 6 μl of transferred supernatant samples in proxiplates; • 5) The plates were incubated for 3 hrs at rt in the dark; and • 6) the levels of IL-6 production was measured using an Envision plate reader (665 nm (emmission)/590 nm (excitation)) with HTRF settings and ratiometric read-out: (XL665 emission/Eu Cryptate emission)×10,000. IFNα2b AlphaLISA Assay for TLR7 or TLR9 activity After thawing the assay plates, 6 μL of supernatant samples were transferred to a low-volume AlphaPlate 384SW (Perkin-Elmer). The concentration of IFNα in supernatants was measured using the IFNα2b AlphaLISA Assay (Perkin-Elmer: AL297F). 3 μL of IFNα acceptor beads/biotinylated antibody solution was added first, using laboratory automation. After an hour incubation, […] of streptavidin […] bead solution was added. The plates containing this mixture were incubated in the dark for an hour and read on an appropriate plate reader at reading parameters set by the manufacturer. (Envision, EnSpire: Perkin-Elmer).
`Cc1cc(N2CCc3c(c(C)nn3CC34CCC(NC(=O)OC(C)(C)C)(CC3)CC4)C2)c2ccncc2n1` [Compound No. 147, tert-butyl (4-((3-methyl-5-(2-methyl-1,7-naphthyridin-4-yl)-4,5,6,7-tetrahydro-1H-pyrazolo[4,3-c]pyridin-1-yl)methyl)bicyclo[2.2.2]octan-1-yl)carbamate]: the half-inhibitory concentration (IC50) was 6.24 µM.

With `Cn1ncc2c(N3CCc4c(cnn4CC45CCC(N)(CC4)CC5)C3)nc(N)nc21` [compound 11, 4-(1-((4-aminobicyclo[2.2.2]octan-1-yl)methyl)-6,7-dihydro-1H-pyrazolo[4,3-c]pyridin-5(4H)-yl)-1-methyl-1H-pyrazolo[3,4-d]pyrimidin-6-amine], the IC50 is > 6.58 µM.

Turning to `Cn1ncc2c(N3CCc4nn(CC56CCC(N)(CC5)CC6)cc4C3)nc(N)nc21` [compound 12, 4-(2-((4-aminobicyclo[2.2.2]octan-1-yl)methyl)-6,7-dihydro-2H-pyrazolo[4,3-c]pyridin-5(4H)-yl)-1-methyl-1H-pyrazolo[3,4-d]pyrimidin-6-amine], the IC50 was > 4.96 µM.

On to `Cc1nn(CC23CCC(N)(CC2)CC3)c2c1CN(c1nc(N)nc3c1cnn3C)CC2` [compound 13, 4-(1-((4-aminobicyclo[2.2.2]octan-1-yl)methyl)-3-methyl-6,7-dihydro-1H-pyrazolo[4,3-c]pyridin-5(4H)-yl)-1-methyl-1H-pyrazolo[3,4-d]pyrimidin-6-amine], for which the IC50 is 7.75 µM.

With `Cc1c2c(nn1CC13CCC(N)(CC1)CC3)CCN(c1nc(N)nc3c1cnn3C)C2` [compound 14, 4-(2-((4-aminobicyclo[2.2.2]octan-1-yl)methyl)-3-methyl-6,7-dihydro-2H-pyrazolo[4,3-c]pyridin-5(4H)-yl)-1-methyl-1H-pyrazolo[3,4-d]pyrimidin-6-amine], the IC50 was > 9.09 µM.

Regarding `Cc1nn(CC23CCC(N)(CC2)CC3)c2c1CN(c1nc(Cl)nc3cnn(C)c13)CC2` [compound 15, 4-((5-(5-chloro-1-methyl-1H-pyrazolo[4,3-d]pyrimidin-7-yl)-3-mehtyl-4,5,6,7-tetrahydro-1H-pyrazolo[4,3-c]pyridin-1-yl)methyl)bicyclo[2.2.2]octan-1-amine], the half-inhibitory concentration (IC50) was 1.27 µM.

With `Cc1nc(N2CCc3c(c(C)nn3CC34CCC(N5CCCC5)(CC3)CC4)C2)c2cnn(C)c2n1` [compound 16, 1,6-dimethyl-4-(3-methyl-1-((4-(pyrrolidin-1-yl)bicyclo[2.2.2]octan-1-yl)methyl)-6,7-dihydro-1H-pyrazolo[4,3-c]pyridin-5(4H)-yl)-1H-pyrazolo[3,4-d]pyrimidine], the IC50 is > 10 µM.

Turning to `Cc1nc(N2CCc3c(c(C)nn3CC34CCC(N5CCCC5)(CC3)CC4)C2)c2c(n1)c(C)nn2C` [compound 17, 1,3,5-trimethyl-7-(3-methyl-1-((4-(pyrrolidin-1-yl)bicyclo[2.2.2]octan-1-yl)methyl)-6,7-dihydro-1H-pyrazolo[4,3-c]pyridin-5(4H)-yl)-1H-pyrazolo[4,3-d]pyrimidine], the IC50 is > 10 µM.

Regarding `COCCNC12CCC(Cn3nc(C)c4c3CCN(c3nc(C)nc5c(C)nn(C)c35)C4)(CC1)CC2` [compound 18, N-(2-methoxyethyl)-4-((3-methyl-5-(1,3,5-trimethyl-1H-pyrazolo[4,3-d]pyrimidin-7-yl)-4,5,6,7-tetrahydro-1H-pyrazolo[4,3-c]pyridin-1-yl)methyl)bicyclo[2.2.2]octan-1-amine], the IC50 was > 10 µM.

For the compound `Cc1nc(N2CCc3c(c(C)nn3CC34CCC(N5CCOCC5)(CC3)CC4)C2)c2cnn(C)c2n1` [compound 19, 4-(4-((5-(1,6-dimethyl-1H-pyrazolo[3,4-d]pyrimidin-4-yl)-3-methyl-4,5,6,7-tetrahydro-1H-pyrazolo[4,3-c]pyridin-1-yl)methyl)bicyclo[2.2.2]octan-1-yl)morpholine], the IC50 was > 10 µM.

In the case of `CCNCC(=O)NC12CCC(Cn3nc(C)c4c3CCN(c3nc(C)nc5[nH]ncc35)C4)(CC1)CC2` [compound 20, 2-(ethylamino)-N-(4-((3-methyl-5-(6-methyl-1H-pyrazolo[3,4-d]pyrimidin-4-yl)-4,5,6,7-tetrahydro-1H-pyrazolo[4,3-c]pyridin-1-yl)methyl)bicyclo[2.2.2]octan-1-yl)acetamide], the IC50 was > 9.38 µM.

With `Cc1nc(N2CCc3c(c(C)nn3CC34CCC(N5CCOCC5)(CC3)CC4)C2)c2cn[nH]c2n1` [compound 21, 4-(4-((3-methyl-5-(6-methyl-1H-pyrazolo[3,4-d]pyrimidin-4-yl)-4,5,6,7-tetrahydro-1H-pyrazolo[4,3-c]pyridin-1-yl)methyl)bicyclo[2.2.2]octan-1-yl)morpholine], the IC50 was > 10 µM.

For `CCNCC(=O)NC12CCC(Cn3nc(C)c4c3CCN(c3nc(C)nc5c(C)nn(C)c35)C4)(CC1)CC2` [compound 22, 2-(ethylamino)-N-(4-((3-methyl-5-(1,3,5-trimethyl-1H-pyrazolo[4,3-c]pyrimidin-7-yl)-4,5,6,7-tetrahydro-1H-pyrazolo[4,3-c]pyridin-1-yl)methyl)bicyclo[2.2.2]octan-1-yl)acetamide], the IC50 is > 10 µM.

As for `Cc1nc(N2CCc3c(c(C)nn3CC34CCC(NCC5COC5)(CC3)CC4)C2)c2c(n1)c(C)nn2C` [compound 23, 4-((3-methyl-5-(1,3,5-trimethyl-1H-pyrazolo[4,3-c]pyrimidin-7-yl)-4,5,6,7-tetrahydro-1H-pyrazolo[4,3-c]pyridin-1-yl)methyl)-N-(oxetan-3-ylmethyl)bicyclo[2.2.2]octan-1-amine], the concentration for half-maximal inhibition (IC50) is > 10 µM.

With `Cc1nc(N2CCc3c(c(C)nn3CC34CCC(NC(=O)CCN(C)C)(CC3)CC4)C2)c2c(n1)c(C)nn2C` [compound 24, 3-(dimethyalmino)-N-(4-((3-methyl-5-(1,3,5-trimethyl-1H-pyrazolo[4,3-d]pyrimidin-7-yl)-4,5,6,7-tetrahydro-1H-pyrazolo[4,3-c]pyridin-1-yl)methyl)bicyclo[2.2.2]octan-1-yl)propanamide], the IC50 is > 7.38 µM.
